Measured values from paper PMC8715118, “Assessing potentiation of the (α4)3(β2)2 nicotinic acetylcholine receptor by the allosteric agonist CMPI” (The Journal of Biological Chemistry, 2021).
Values joined by “and” are separate entries in the source; they are usually repeats but may differ in a detail not shown here. Identical values can stand only once. Like-named read-outs stand apart in the source and are kept apart here.

Key:
(α4H116V)3(β2)2 nAChR = target: T1, (α4H116V)3(β2)2 nAChR (Homo sapiens, UniProt P17787+P43681, H142V); test: Two-electrode voltage-clamp, oocytes expressing (α4H116V)3(β2)2 nAChR; assay type: cell-based
T1 construct: expressed in transfected cells; host or cells: Xenopus laevis oocytes injected with cRNA, 8:1 α4:β2
T1 sequence (P43681 27-627 H142V): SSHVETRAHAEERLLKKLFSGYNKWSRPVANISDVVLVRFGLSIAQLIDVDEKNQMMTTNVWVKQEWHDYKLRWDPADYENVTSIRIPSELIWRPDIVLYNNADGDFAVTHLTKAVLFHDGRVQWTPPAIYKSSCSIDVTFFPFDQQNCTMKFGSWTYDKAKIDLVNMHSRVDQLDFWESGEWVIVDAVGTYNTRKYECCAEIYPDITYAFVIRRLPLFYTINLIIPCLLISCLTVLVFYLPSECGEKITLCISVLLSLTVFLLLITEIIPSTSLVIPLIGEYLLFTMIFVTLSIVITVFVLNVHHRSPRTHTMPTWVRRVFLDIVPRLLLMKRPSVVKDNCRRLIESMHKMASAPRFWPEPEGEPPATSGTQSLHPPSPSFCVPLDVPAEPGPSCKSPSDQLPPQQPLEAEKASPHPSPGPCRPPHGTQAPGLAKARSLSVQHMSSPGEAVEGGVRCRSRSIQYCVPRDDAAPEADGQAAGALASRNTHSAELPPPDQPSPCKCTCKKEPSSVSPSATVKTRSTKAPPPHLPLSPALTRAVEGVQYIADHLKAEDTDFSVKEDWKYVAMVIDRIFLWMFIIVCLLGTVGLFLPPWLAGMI
T1 sequence (P17787 26-502): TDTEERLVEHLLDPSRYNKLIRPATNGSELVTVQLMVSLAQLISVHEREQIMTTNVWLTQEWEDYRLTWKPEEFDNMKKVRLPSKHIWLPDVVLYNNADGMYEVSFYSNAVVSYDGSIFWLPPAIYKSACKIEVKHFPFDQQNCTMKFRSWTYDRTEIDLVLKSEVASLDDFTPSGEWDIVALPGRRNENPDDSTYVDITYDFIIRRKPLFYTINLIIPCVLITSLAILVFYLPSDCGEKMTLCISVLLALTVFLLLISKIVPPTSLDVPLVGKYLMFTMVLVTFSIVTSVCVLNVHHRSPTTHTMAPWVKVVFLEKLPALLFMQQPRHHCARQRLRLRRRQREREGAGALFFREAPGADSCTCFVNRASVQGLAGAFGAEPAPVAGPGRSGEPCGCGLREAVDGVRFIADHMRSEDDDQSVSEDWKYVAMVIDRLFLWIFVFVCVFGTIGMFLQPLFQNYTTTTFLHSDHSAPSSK
Procedure: Oocytes-positive female Xenopus laevis were purchased from NASCO, and all procedures were performed according to an animal use protocol approved by the Institutional Animals Care and Use Committee of The University of Texas Health Science Center at Tyler. Ovarian lobules were surgically harvested, treated with collagenase type 2, and Stage V and VI oocytes were visually selected and maintained at 18 °C in modified ND96-gentamicin buffer (96 mM NaCl, 2 mM KCl, 1.8 mM CaCl2, 1 mM MgCl2, 5 mM Hepes, and 50 μg/ml gentamicin, pH 7.6).
pSP64 Poly(A) plasmids with cDNA encoding for human α4 or β2 nAChR subunit were used to prepare cRNA transcripts suitable for oocyte expression. The plasmids were linearized with AseI (hα4) and PvuII (hβ2), then cRNA transcripts were prepared in vitro using mMESSAGE mMACHINE high yield-capped RNA transcription kits (Ambion, Thermo Fisher Scientific), purified on NucAway Spin column (Invitrogen, Thermo Fisher Scientific), and stored at −80 °C until used. Point mutations within the plasmid encoding the α4 nAChR subunit were introduced using QuikChange II Site-Directed Mutagenesis Kit (Agilent Technologies), as described previously ([28]). To generate amino acid substitutions (K64T, E66I, H116V, H116L, and H116A), two custom-designed complementary oligos containing the desired mutation were used (Integrated DNA Technologies). The forward primers were as the following with the codon for mutated amino acids are underlined and nucleotide(s) changes are bolded and italicized:
The oocytes were injected with 10 to 50 ng of a cRNA mix containing α4 (WT or mutant) and β2 RNAs at ratios of 8:1(α4:β) or 1:8 (α4:β2) to bias expression toward (α4)3(β2)2 or (α4)2(β2)3 nAChRs, respectively. The injection of oocytes with RNAs mixture containing four folds or higher α4 RNA than β2 RNA have been established to express receptor population that is made up of three α4 and two β2 subunits ([9], [12], [28], [43], [44], [45]).
24 to 72 h after cRNA injection, Xenopus oocytes were placed in a custom-made recording chamber that is connected to an eight-channel automated perfusion system (Warner Instruments) and perfused with recording buffer (100 mM NaCl, 2 mM KCl, 1 mM CaCl2, 0.8 mM MgCl2, 1 mM EGTA, and 10 mM Hepes, pH 7.5). Unless otherwise specified in figure legends, each recording run included several drug applications (10 s of an agonist with or without CMPI or NS9283) separated by 3 to 4 min buffer wash intervals. Between recording runs, the oocytes were washed with recording buffer for at last 5 min. […] The currents were digitized using Digidata 1550A (Axon Instruments, Molecular Devices), and the peak currents were quantified using pCLAMP 10 (Axon Instruments), then normalized and analyzed using Excel 2010 (Microsoft) and SigmaPlot 11.0 (Systat Software). […]

(α4)3(β2)2 nAChR = target: T2, (α4)3(β2)2 nAChR (Homo sapiens, UniProt P17787+P43681); test: Mechanistic (Monod-Wyman-Changeux two-state model) analysis of current responses, WT (α4)3(β2)2 nAChR; assay type: cell-based
T2 construct: expressed in transfected cells; host or cells: Xenopus laevis oocytes injected with cRNA, 8:1 α4:β2
T2 sequence (P43681 27-627): as the sequence (P43681 27-627 H142V) above, with V116H counted along it
T2 sequence (P17787 26-502): as the sequence (P17787 26-502) above
From the text: To gain mechanistic insight into receptor activation in the presence of CMPI, we analyzed the currents in the framework of a cyclic two-state (resting and active) allosteric activation model ([31], [32], [33]). In this model, channel opening is mediated by stabilization of the active state by an agonist that, by definition, has higher affinity to the active than resting state.
We commenced by converting the raw amplitudes of current responses to units of probability of being in the active state (PA units).
Further analysis of electrophysiological data was conducted in the framework of the two-state concerted transition model, adapted from the MWC cyclic model originally used to describe enzyme function ([31], [32], [33]). The raw peak amplitudes of current responses were converted to units of probability of being in the active state (PA).
The numbers of α4:β2 and α4:α4 binding sites (Nα4:β2 and Nα4:α4) were constrained to 2 and 1, respectively.
The concentration-response curve for TC-2559 was fitted to the following equation:(3) PA=1/1+L[1+[TC-2559]/KR,TC-2559,α4:β2/1+[TC-2559]/(KR,TC-2559,α4:β2cTC-2559,α4:β2)]^Nα4:β2
The concentration-response data were analyzed using Equation 3, with the value of L modified to reflect receptor activation by TC-2559, and the affinity and efficacy terms in the equation reflecting the values for CMPI. The number of binding sites for CMPI in Equation 3 was constrained to 1.
Curve fitting was done using Origin 2020 (OriginLab Corp). The results are reported as best-fit parameter ±SD of the fit. All data are included in the analysis.

potentiation fold (Ave ± SD), agonist + 1 μM modulator / agonist alone ((α4H116V)3(β2)2 nAChR; ACh (1 mM)): 0.76 ± 0.05
potentiation fold (Ave ± SD), agonist + 1 μM modulator / agonist alone ((α4H116V)3(β2)2 nAChR; TC 2559 (30 μM)): 3.01 ± 0.39
free energy change toward stabilization of the active state ((α4)3(β2)2 nAChR; CMPI at the α4:α4 interface, from 1 μM TC-2559 background dataset): -1.42 kcal/mol
ΔGgating ((α4)3(β2)2 nAChR; CMPI at the α4:α4 site, from mean parameters): -1.35 kcal/mol
cCMPI,α4:α4 ((α4)3(β2)2 nAChR; background of 1 μM TC-2559): 0.090 ± 0.004
Kd ((α4)3(β2)2 nAChR; background of 1 μM TC-2559, 0.01 to 3 μM CMPI, read-out: KR,CMPI,α4:α4): 0.17 ± 0.03 µM
cCMPI,α4:α4 ((α4)3(β2)2 nAChR; background of 1 μM cytisine): 0.074 ± 0.009
Kd ((α4)3(β2)2 nAChR; background of 1 μM cytisine, read-out: KR,CMPI,α4:α4): 0.43 ± 0.17 µM
cCMPI,α4:α4 ((α4)3(β2)2 nAChR; background of 1 μM nicotine): 0.065 ± 0.007
Kd ((α4)3(β2)2 nAChR; background of 1 μM nicotine, read-out: KR,CMPI,α4:α4): 0.4 ± 0.1 µM
cCMPI,α4:α4 ((α4)3(β2)2 nAChR; background of 10 μM ACh): 0.145 ± 0.008
Kd ((α4)3(β2)2 nAChR; background of 10 μM ACh, read-out: KR,CMPI,α4:α4): 0.29 ± 0.06 µM
cCMPI,α4:α4 ((α4)3(β2)2 nAChR; background of 10 μM TC-2559): 0.129 ± 0.009
Kd ((α4)3(β2)2 nAChR; background of 10 μM TC-2559, read-out: KR,CMPI,α4:α4): 0.09 ± 0.02 µM
Kd ((α4)3(β2)2 nAChR; five approaches, read-out: KR,CMPI,α4:α4, range of estimates): 0.09 to 0.43 µM
mean cCMPI,α4:α4 ((α4)3(β2)2 nAChR; mean of the five approaches): 0.101 ± 0.035 and 0.101
Kd ((α4)3(β2)2 nAChR; mean of the five approaches, read-out: mean KR,CMPI,α4:α4): 0.28 ± 0.15 µM
SMILES: Cc1c(-c2cc(-c3ccccc3Cl)no2)cnn1C1CCNCC1 [CMPI, 3-(2-chlorophenyl)-5-(5-methyl-1-(piperidin-4-yl)-1H-pyrrazol-4-yl)isoxazole]
